{"source": "patent EP0741709B1", "about": "“AROMATIC 2-AMINO-IMIDAZOLE DERIVATIVES AS ALPHA-2A ADRENOCEPTOR AGONISTS” (Allergan Sales, Inc., priority 1994, dated 1995)", "target": "T1, rat α2B adrenoceptor (Rattus norvegicus, UniProt P19328)", "T1 construct": "expressed in transfected cells; host or cells: CHO (CHO-RNG)", "T1 sequence (P19328 1-453)": "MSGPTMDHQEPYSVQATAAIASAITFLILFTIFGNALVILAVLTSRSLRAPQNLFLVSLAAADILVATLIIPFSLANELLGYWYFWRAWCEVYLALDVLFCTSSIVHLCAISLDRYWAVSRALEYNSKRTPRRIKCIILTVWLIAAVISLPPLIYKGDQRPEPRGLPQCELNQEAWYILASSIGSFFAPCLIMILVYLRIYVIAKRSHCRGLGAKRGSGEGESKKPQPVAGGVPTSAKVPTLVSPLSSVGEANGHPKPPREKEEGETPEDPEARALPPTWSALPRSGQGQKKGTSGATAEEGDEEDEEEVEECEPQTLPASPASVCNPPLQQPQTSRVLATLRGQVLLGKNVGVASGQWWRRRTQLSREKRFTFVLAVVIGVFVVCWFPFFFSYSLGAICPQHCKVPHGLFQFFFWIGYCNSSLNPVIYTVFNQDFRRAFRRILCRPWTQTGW", "experiment": "Receptor binding assay, [3H]rauwolscine, CHO-RNG cell membranes", "conditions": "22°C, 30 minutes", "protocol": "(§1) Cell preparation: Chinese hamster ovary (CHO) cells expressing the human α2A and human α2C (CHO-C10 and CHO-C4 respectively) receptors and CHO cells (CHO-RNG) expressing the rat α2B adrenoceptor were grown to near confluence in Dulbecco's modified Eagle's medium supplemented with 10% fetal bovine serum using standard cell culture methods. Cells were harvested by scraping and placed into cold buffer of the following composition: 50 mM Tris-HCl, 5 mM EDTA, pH 7.4). Cells were then homogenized with a Polytron homogenizer for 2 X 10 sec at setting #7, and centrifuged for 20 minutes at 49,000 x g. The pellet fraction was washed (resuspended in Tris-HCl, pH 8 buffer and centrifuged for 15-20 minutes at 49,000 x g) 2 times and stored at -100°C until binding assay.\nBinding Studies: The radioligands [^3H]rauwolscine (specific activity 80 Ci/mmol) and [^3H]prazosin (specific activity 76 Ci/mmol) were obtained from New England Nuclear, Boston, MA. Frozen membrane pellet was resuspended in 25 mM glycine/glycine, pH 7.5 and incubated with radioligand under the following conditions: CHO-C10, CHO-RNG, CHO-C4-[^3H]rauwolscine, 22°C, 30 minutes; RKC-[^3H]rauwolscine, 0°C, 120 minutes; and, HCC-[^3H]prazosin, 22°C, 30 minutes in a final volume of 500 ul. At the end of the incubation period, the samples were filtered through glass filters (Whatman GF/B) in a 96 well cell harvester and rapidly washed four times with 4 mL of iced-cold 50 mM Tris-HCl buffer. The filters were then oven dried and transferred to scintillation vials containing 10 mL of Beckman's Ready Protein® scintillation cocktail for counting. Specific binding defined by 10 uM phentolamine for competition studies were as follows: 2.4 nM [^3H]brimonidine-RbICB 62%; 2.4 nM [^3H]rauwolscine-RbICB 75%; 2 nM [^3H]rauwolscine-RbKc 88%; 0.3 nM [^3H] rauwolscine-CHO-C10 99%; 0.4 nM [^3H]rauwolscine-CHO-RNG 99%, 0.3 nM [^3H]prazosin 87%; and 1 nM [^3H]rauwolscine-CHO-C4 90%. Protein concentrations were determined with a protein assay kit from Bio Rad. Binding isotherms, equilibrium dissociation and affinity constants were analyzed and determined by the non-linear least squares curve fitting programs EBDA (BioSoft) or AccuFit Competition/Saturation by Beckman.\nas §1, with “α2A (CHO-C10)” for “α2A”, “and” for “and human α2C (CHO-C10 and CHO-C4 respectively) receptors and CHO cells (CHO-RNG) expressing”, “α2B(CHO-RNG) human α2Aadrenoceptors” for “α2B adrenoceptor”\nThe radioligands [^3H)rauwolscine (specific activity 80 Ci/mmol) and [^3H]prazosin (specific activity 76 Ci/mmol) were obtained from New England Nuclear, Boston, MA. Frozen membrane pellet was resuspended in 25 mM glycine/glycine, pH 7.4 and incubated with radioligand under the following conditions: CHO-C10, CHO-RNG, CHO-C4-[^3H]rauwolscine, 22°C, 30 min.; and, HCC-[^3H]prazosin, 22°C, 30 minutes in a final volume of 500 ul. At the end of the incubation period, the samples were filtered through glass fiber filters (Whatman GF/B) in a 96 well cell harvester and rapidly washed four times with 4 mL of iced-cold 50 mM Tris-CHl buffer. The filters were then oven dried and transferred to scintillation vials containing 5 mL of Beckman's Ready Protein® scintillation cocktail for counting. Specific binding defined by 10 uM phentolamine for competition studies were as follows: 0.3 nM[^3H] rauwolscine-CHO-C10 99%; 0.4 nM [^3H]rauwolscine-CHO-RNG 99%, and 0.3 nM [^3H] prazosin-HCC 87%. Protein concentrations were determined with a protein assay kit from Bio Rad. […]", "data": [{"smiles": "Brc1c(Nc2ncc[nH]2)ccc2nccnc12", "values": [{"measurement": "Ki", "value": 12900, "unit": "nM"}]}, {"smiles": "COc1ccc(Nc2ncc[nH]2)c(C)c1", "values": [{"measurement": "Ki", "value": 434, "unit": "nM"}]}, {"smiles": "c1ccc(Nc2ncc[nH]2)cc1", "values": [{"measurement": "Ki", "value": 1890, "unit": "nM"}]}, {"smiles": "Clc1cccc(Cl)c1Nc1ncc[nH]1", "values": [{"measurement": "Ki", "value": 587, "unit": "nM"}]}, {"smiles": "Cc1c(Nc2ncc[nH]2)ccc2nccnc12", "values": [{"measurement": "Ki", "value": 1160, "unit": "nM"}]}, {"smiles": "Cc1c(Nc2ncc[nH]2)ccc2c1NCCO2", "values": [{"measurement": "Ki", "value": 436, "unit": "nM"}]}, {"smiles": "Cc1c(Nc2ncc[nH]2)ccc2c1OCCO2", "values": [{"measurement": "Ki", "value": 82, "unit": "nM"}]}, {"smiles": "Cc1ccccc1Nc1ncc[nH]1", "values": [{"measurement": "Ki", "value": 561, "unit": "nM"}]}, {"smiles": "Brc1ccccc1Nc1ncc[nH]1", "values": [{"measurement": "Ki", "value": 1450, "unit": "nM"}]}, {"smiles": "c1cc2c(c(Nc3ncc[nH]3)c1)CCCC2", "values": [{"measurement": "Ki", "value": 152, "unit": "nM"}]}, {"smiles": "Clc1ccccc1Nc1ncc[nH]1", "values": [{"measurement": "Ki", "value": 1940, "unit": "nM"}]}]}
